The values that follow come from patent publication US10183944B2 (Asana Biosciences, LLC, priority 2011, dated 2019).

Molecules are shown by their SMILES. Structures can show the parent of a compound that is named as a salt.

One assay concerns the target JAK2 (Homo sapiens (Human), UniProt O60674). The assay is described as follows: Inhibition of enzymatic JAK2 kinase activity (TR-FRET). In kind it is biochemical. To be noted: read-out: IC50 JAK. The text has this: The objective of this assay was to screen compounds in a Time-resolved fluorescence resonance energy transfer (TR-FRET) Enzymatic assay method for their potential to inhibit JAK2 (Janus kinase) activity.
TR-FRET assays are homogeneous proximity assays where Eu-labeled antiphosphotyrosine antibody binds to the phosphorylated substrates labeled with Ulight fluorescence acceptor. Eu can transfer energy to Ulight accepter in the complex and the interaction of two dye-labeled binding partners is detected by the energy transfer between a donor and an acceptor dye, and the subsequent light emission by the acceptor dye. The intensity of the light emission is proportional to the level of Ulight peptide phosphorylation.
Two μL of 10% DMSO in blank, substrate control and positive control wells and 2 μL of test compound in test wells was added. Thirteen μL of assay buffer in blank and substrate control wells and 13 μL of Enzyme buffer mix in positive and test wells was added. The reaction mixture was incubated for 30 minutes at RT on a plate shaker. Ultra Light-pGT substrate (5 μL) [poly Glu-Tyr (4:1) labeled with U Light TM dye, a tyrosine kinase substrate] and ATP mix was added to all wells. The reaction plate was incubated for 60 minutes at RT on a plate shaker. The reaction was stopped by adding 40 mM EDTA (10 μL) in buffer. Ten μL of antibody was added to all the wells. The plate was read in a Wallac® 1420 Multilabel Counter Victor 3 instrument (Ex: 340 nm Em: 615 & 665 nm) The following calculations were made:
F@ 665 Value-Buffer blank
F@ 615 Value-Buffer blank
Ratio of F@665/F@615-Substrate Blank
% Activity=(Test Sample/Positive control)*100%
Inhibition=(100−% Activity)
A general note: Time-resolved FRET reads energy transfer from a long-lived donor to a nearby acceptor.

For assay [1], the target named is Syk (356-635 amino acids) catalytic domain (Homo sapiens (Human), UniProt P43405). The assay is described as follows: Inhibition of enzymatic Syk kinase activity (radiometric). Format: biochemical. To be noted: read-out: IC50 Syk. In a few lines: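 Human Syk (356-635) kinase domain (0.035–7.5 ng/reaction) preincubated with compound 30 minutes at room temperature, then reacted with pG4T substrate, 100 μM ATP (stock) and γ-32P-ATP for 10 minutes at 30° C. Reaction stopped with HCl/ATP, spotted on P81 paper, washed and counted by scintillation. Percent inhibition versus no-compound counts.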

Chain of JAK2 (O60674 808-1132): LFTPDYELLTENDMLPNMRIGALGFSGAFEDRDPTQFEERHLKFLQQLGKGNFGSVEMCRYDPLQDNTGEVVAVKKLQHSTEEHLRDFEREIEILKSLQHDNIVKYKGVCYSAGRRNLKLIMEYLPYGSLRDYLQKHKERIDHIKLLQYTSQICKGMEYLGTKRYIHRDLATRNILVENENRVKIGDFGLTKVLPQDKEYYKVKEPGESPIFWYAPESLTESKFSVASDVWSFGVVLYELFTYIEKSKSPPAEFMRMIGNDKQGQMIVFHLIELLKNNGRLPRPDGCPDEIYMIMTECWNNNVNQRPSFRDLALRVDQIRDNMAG

Turning to `O=c1[nH]ncc2nc(N3CC[S+]([O-])CC3)nc(Nc3ccc(CN4CCNCC4)cc3)c12` [Example 44, 2-(1-oxidothiomorpholino)-4-((4-(piperazin-1-ylmethyl)phenyl)amino) pyrimido[4,5-d]pyridazin-5(6H)-one hydrochloride], the IC50 (on JAK2; in assay [1]) was more than 100 nM in each case.

`CN1CCN(c2nc(Nc3ccc(CN4CCNCC4)cc3)c3c(=O)[nH]ncc3n2)CC1` [Example 45, 2-(4-methylpiperazin-1-yl)-4-((4-(piperazin-1-ylmethyl)phenyl)amino) pyrimido[4,5-d]pyridazin-5(6H)-one hydrochloride]: the IC50 (at JAK2; in assay [1]) was more than 100 nM throughout.

`CN(C)c1nc(Nc2ccc(CN3CCNCC3)cc2)c2c(=O)[nH]ncc2n1` [Example 49, 2-(dimethylamino)-4-((4-(piperazin-1-ylmethyl)phenyl)amino)pyrimido[4,5-d]pyridazin-5(6H)-one hydrochloride]: the 50% inhibitory concentration (IC50) (on JAK2; in assay [1]) was less than 100 nM throughout.

In the case of `O=C(O)C1CCN(c2nc(Nc3ccc(CN4CCNCC4)cc3)c3c(=O)[nH]ncc3n2)CC1` [Example 51, 1-(5-oxo-4-((4-(piperazin-1-ylmethyl)phenyl)amino)-5,6-dihydropyrimido[4,5-d]pyridazin-2-yl)piperidine-4-carboxylic acid hydrochloride], the IC50 (at JAK2; in assay [1]) was more than 100 nM throughout.

Consider `COc1ccccc1-c1nc(Nc2ccc(N3CCC4(CC3)CC4C(=O)O)cc2)c2c(=O)[nH]ncc2n1` (stereo not shown) [Example 53, 6-(4-((2-(2-methoxylphenyl)-5-oxo-5,6-dihydropyrimido[4,5-d]pyridazin-4-yl)amino)phenyl)-6-azaspiro[2.5]octane-1-carboxylic acid], for which the IC50 on JAK2 is less than 100 nM; in assay [1] it was more than 100 nM.

In the case of `O=c1[nH]ncc2nc(-c3ccc(CN4CCOCC4)cc3)nc(Nc3ccc(CN4CCNCC4)cc3)c12` [Example 55, 2-(4-(morpholinomethyl)phenyl)-4-((4-(piperazin-1-ylmethyl)phenyl)amino) pyrimido[4,5-d]pyridazin-5(6H)-one hydrochloride], the IC50 (at JAK2; in assay [1]) was more than 100 nM in each case.

As to `N#CC1CCN(c2nc(Nc3ccc(CN4CCNCC4)cc3)c3c(=O)[nH]ncc3n2)CC1` [Example 56, 1-(5-oxo-4-((4-(piperazin-1-ylmethyl)phenyl)amino)-5,6-dihydropyrimido[4,5-d]pyridazin-2-yl)piperidine-4-carbonitrile hydrochloride], the values for the IC50 (on JAK2; in assay [1]) were less than 50 nM and more than 100 nM, respectively.

For the compound `O=c1[nH]ncc2nc(N3CCCNCC3)nc(Nc3ccc(CN4CCNCC4)cc3)c12` [Example 59, 2-(1,4-diazepan-1-yl)-4-((4-(piperazin-1-ylmethyl)phenyl)amino)pyrimido[4,5-d]pyridazin-5(6H)-one dihydrochloride], the IC50 on JAK2 is more than 100 nM; in assay [1], less than 50 nM.

Turning to `N#CCN1CCN(c2nc(Nc3ccc(N4CCC(CC(=O)O)CC4)cc3)c3c(=O)[nH]ncc3n2)CC1` [Example 70, 2-(1-(4-((2-(4-(cyanomethyl)piperazin-1-yl)-5-oxo-5,6-dihydropyrimido[4,5-d]pyridazin-4-yl)amino)phenyl)piperidin-4-yl)acetic acid], the IC50 was more than 100 nM on JAK2 and less than 100 nM in assay [1].

For `O=C(O)C1CC12CCN(c1ccc(Nc3nc(N4CCCNCC4)nc4cn[nH]c(=O)c34)cc1)CC2` (stereo not shown) [Example 72, 6-(4-((2-(1,4-diazepan-1-yl)-5-oxo-5,6-dihydropyrimido[4,5-d]pyridazin-4-yl)amino)phenyl)-6-azaspiro[2.5]octane-1-carboxylic acid hydrochloride], the IC50 on JAK2 is less than 100 nM; in assay [1], less than 50 nM.

Regarding `O=C(O)CC1CCN(Cc2ccc(Nc3nc(N4CCCCCC4)nc4cn[nH]c(=O)c34)cc2)CC1` [Example 77, 2-(1-(4-((2-(azepan-1-yl)-5-oxo-5,6-dihydropyrimido[4,5-d]pyridazin-4-yl)amino)benzyl)piperidin-4-yl)acetic acid], the IC50 on JAK2 was less than 10 nM; in assay [1] it was less than 50 nM.

In the case of `O=C(O)C1CC12CCN(c1ccc(Nc3nc(C4CCCCC4)nc4cn[nH]c(=O)c34)cc1)CC2` (stereo not shown) [Example 79, 6-(4-((2-cyclohexyl-5-oxo-5,6-dihydropyrimido[4,5-d]pyridazin-4-yl)amino)phenyl)-6-azaspiro[2.5]octane-1-carboxylic acid], the results for the IC50 (on JAK2; in assay [1]) were less than 10 nM and less than 50 nM, respectively.

Consider `N#CCC1CCN(c2ccc(Nc3nc(N4CCCCCC4)nc4cn[nH]c(=O)c34)cc2)CC1` [Example 80, 2-(1-(4-((2-(azepan-1-yl)-5-oxo-5,6-dihydropyrimido[4,5-d]pyridazin-4-yl)amino)phenyl)piperidin-4-yl)acetonitrile], for which the IC50 at JAK2 is less than 10 nM; in assay [1], less than 50 nM.

`O=C(O)C1CC12CCN(c1ccc(Nc3nc(C4CCCCCC4)nc4cn[nH]c(=O)c34)cc1)CC2` (stereo not shown) [Example 81, 6-(4-((2-cycloheptyl-5-oxo-5,6-dihydropyrimido[4,5-d]pyridazin-4-yl)amino)phenyl)-6-azaspiro[2.5]octane-1-carboxylic acid]: the IC50 at JAK2 is less than 10 nM; in assay [1], less than 50 nM.

For `CC(C)(O)C(=O)N1CCN(Cc2ccc(Nc3nc(-c4ccccc4)nc4cn[nH]c(=O)c34)cc2)CC1` [Example 83, 4-((4-((4-(2-hydroxy-2-methylpropanoyl)piperazin-1-yl)methyl)phenyl)amino)-2-phenylpyrimido[4,5-d]pyridazin-5(6H)-one], the IC50 (at JAK2; in assay [1]) was less than 50 nM each time.

In the case of `CC(C)(O)C(=O)N1CCN(Cc2ccc(Nc3nc(N4CCCCCC4)nc4cn[nH]c(=O)c34)cc2)CC1` [Example 84, 2-(azepan-1-yl)-4-((4-((4-(2-hydroxy-2-methylpropanoyl)piperazin-1-yl)methyl)phenyl)amino)pyrimido[4,5-d]pyridazin-5(6H)-one], the IC50 on JAK2 was less than 10 nM; in assay [1] it was less than 50 nM.

As for `CN1CCN(Cc2ccc(Nc3nc(N4CCCCCC4)nc4cn[nH]c(=O)c34)cc2)CC1` [Example 85, 2-(azepan-1-yl)-4-((4-((4-methylpiperazin-1-yl)methyl)phenyl)amino)pyrimido[4,5-d]pyridazin-5(6H)-one], the figures for the IC50 (at JAK2; in assay [1]) were less than 10 nM and less than 50 nM, respectively.

With `O=C(O)CN1CCC(c2ccc(Nc3nc(-c4ccccc4)nc4cn[nH]c(=O)c34)cc2)CC1` [Example 86, 2-(4-(4-((5-oxo-2-phenyl-5,6-dihydropyrimido[4,5-d]pyridazin-4-yl)amino)phenyl)piperidin-1-yl)acetic acid], the IC50 (on JAK2; in assay [1]) was less than 50 nM each time.

Consider `O=C(O)CC1CCC(c2ccc(Nc3nc(-c4ccccc4)nc4cn[nH]c(=O)c34)cc2)CC1` (stereo not shown) [Example 87, 2-(4-(4-((5-oxo-2-phenyl-5,6-dihydropyrimido[4,5-d]pyridazin-4-yl)amino)phenyl)cyclohexyl)acetic acid], for which the figures for the IC50 (on JAK2; in assay [1]) were less than 100 nM and less than 50 nM, respectively.

On to `CC(C)(C#N)C1CCN(c2nc(Nc3ccc(N4CCC(CC(=O)O)CC4)cc3)c3c(=O)[nH]ncc3n2)CC1` [Example 100, 2-(1-(4-((2-(4-(2-cyanopropan-2-yl)piperidin-1-yl)-5-oxo-5,6-dihydropyrimido[4,5-d]pyridazin-4-yl)amino)phenyl)piperidin-4-yl)acetic acid], for which the IC50 (at JAK2; in assay [1]) was less than 50 nM throughout.

One may read the IC50 as the concentration needed to halve the response being measured.
